Assays:
[1] = test system: immortal (high passage) MDAH041 cells; format: cell-based, human
[2] = test system: immortal MDAH087 cell lines; assay: Senescence phenotype (morphology, senescence-associated β-galactosidase), immortal MDAH087 cell lines; format: cell-based, human; details: 5-aza-dC treatment of immortal MDAH087 cell lines
[3] = test system: immortal (high passage) MDAH041 cells
immortal MDAH041 cells = assay: Senescence phenotype (morphology, senescence associated β-galactosidase at pH 6), immortal MDAH041; format: cell-based, human; details: immortal MDAH041 high passage treated with 5AZA-dC (1 μM days 1, 3, 5)
Experimental: The MDAH041 (p53 frameshift mutation) cell line was derived from primary fibroblasts obtained by skin biopsy from patients with LFS. […] All cells were grown in modified Eagles medium (MEM, Gibco BRL, MD, USA) with 10% fetal calf serum and antibiotics. The CRL1502 cell line was derived from primary fibroblasts obtained by skin biopsy from a normal donor (ATCC 1502, Rockville, Md., USA).

Nc1ncn([C@H]2C[C@H](O)[C@@H](CO)O2)c(=O)n1 [5-aza-dC, 5-aza-2′-deoxycytidine]
(2-5′) oligoadenylate synthetase E gene OAS1 expression, MDAH041HP vs. MDAH0411HP 5aza [1]: 1072↑ fold
ALDH1A3 expression, IM vs 5-aza-dC, QP [1]: 7.84 fold
CIG49 expression, MDAH041HP vs. MDAH0411HP 5aza [1]: 204↑ fold
CLTB expression, IM vs 5-aza-dC, QP [1]: 2.04 fold
CREG expression, IM vs 5-aza-dC, QP [1]: 2.88 fold
HSPA2 expression, IM vs 5-aza-dC, QP [1]: 2.74 fold
IGFBP3 expression, IM vs 5-aza-dC, QP [1]: 8.29 fold
IGFBP4 expression, IM vs 5-aza-dC, QP [1]: 7.00 fold
Interferon-induced 17-kDa/15-kDA expression, MDAH041HP vs. MDAH0411HP 5aza [1]: 443↑ fold
Interferon-inducible 56 kDa protein expression, MDAH041HP vs. MDAH0411HP 5aza [1]: 1807↑ fold
Interferon-inducible membrane protein 9-27 (IFITM1) expression, MDAH041HP vs. MDAH0411HP 5aza [1]: 278↑ fold
Interferon-inducible protein p78 expression, MDAH041HP vs. MDAH0411HP 5aza [1]: 480↑ fold
Interferon-regulatory factor 7B expression, MDAH041HP vs. MDAH0411HP 5aza [1]: 20031↑ fold
KIAA1750 expression, IM vs 5-aza-dC, QP [1]: 3.86 fold
MGSF expression, MDAH041HP vs. MDAH0411HP 5aza [1]: 800↑ fold
MIF expression, MDAH041HP vs. MDAH0411HP 5aza [1]: 130↑ fold
NDN expression, MDAH041HP vs. MDAH0411HP 5aza [1]: 10↑ fold
OPTN expression, IM vs 5-aza-dC, QP [1]: 9.21 fold
SERPINB2 expression, IM vs 5-aza-dC, QP [1]: 12.90 fold
STAT 1, 91 kD expression, MDAH041HP vs. MDAH0411HP 5aza [1]: 158↑ fold
STAT1α expression, IM vs 5-aza-dC, QP [1]: 119.85 fold
TNFAIP2 expression, IM vs 5-aza-dC, QP [1]: 6.10 fold
additional increase in hTERT RNA expression [1]: 17 fold
senescent phenotype of treated cells [2]: resulted in a flat senescence-like morphology and the activation of the senescence-associated β-galactosidase activity
2-5A synthetase induced by interferon OAS-1 expression [3]: 76.5 fold
2-5 oligoadenylate synthetase 59 kDa OAS-L expression [3]: 40.0 fold
041 5-aza Ave Signal Log [3]: 0.93
(2-5′) oligoadenylate synthetase 59 kDa isoform OAS-L expression [3]: 40.0 fold
ALDH1A3 expression, 5A [3]: 2.8 fold
ALDH1A3 expression, IM vs 5-aza-dC, MA [3]: 2.8 fold
Adlican expression [3]: 17.6 fold
Aldehyde dehydrogenase 6 expression [3]: 4.1 fold
Aortic carboxypeptidase-like protein expression [3]: 12.3 fold
Associated molecule with the SH3 domain of STAM expression [3]: 7.6 fold
B2-bradykinin receptor, 3 expression [3]: 3.8 fold
B94 protein (tumor necrosis factor-alpha-inducible) expression [3]: 5.5 fold
BAC clone RG118D07 from 7q31 expression [3]: 5.5 fold
BST-2 (bone marrow stroma cell surface gene) expression [3]: 38.7 fold
Beta-thromboglobin-like protein expression [3]: 17.5 fold
Bone morphogenetic protein 2A expression [3]: 9.9 fold
CDNA DKFZp564H142 expression [3]: 9.5 fold
CIG5 (cytomegalovirus induces interferon-responsive) expression [3]: 66.6 fold
CIG5 vipirin expression [3]: 67.0 fold
CIG49 (cytomegalovirus induces interferon-responsive) expression [3]: 70.2 fold
CIG49 Interferon-induced protein with tetratricopepide repeats 4 expression [3]: 70.2 fold
CLTB expression, 5A [3]: 1.5 fold
CLTB expression, IM vs 5-aza-dC, MA [3]: 1.5 fold
CREG expression, 5A [3]: 2.2 fold
CREG expression, IM vs 5-aza-dC, MA [3]: 2.21 fold
CYP1B1 expression, 5A [3]: 8.2 fold
Carbonic anhydrase precursor (CA 12) expression [3]: 8.9 fold
Complement cytolysis inhibitor (CLI) expression [3]: 5.1 fold
Complement factor H expression [3]: 6.8 fold
Cysteine-rich heart protein expression [3]: 8.8 fold
Cytokine (GRO-beta, GRO-2) expression [3]: 29.6 fold
Cytokine (GRO-gamma) expression [3]: 56.8 fold
DUSP6 (dual specificity MAP kinase-phosphatase) expression [3]: 4.6 fold
Dickkopf-1 (hdkk-1) expression [3]: 14.4 fold
Dioxin-inducible cytochrome P450 (CYP1B1) expression [3]: 6.9 fold
Dual-specificity protein phosphatase expression [3]: 12.6 fold
FLJ14675 expression, 5A [3]: 3.8 fold
Factor H homologue expression [3]: 7.5 fold
Fibulin-2 expression [3]: 21.8 fold
Gamma-interferon-inducible protein (IP-30) expression [3]: 31.2 fold
Genes for histones H2B.1 and H2A expression [3]: 4.3 fold
Gravin expression [3]: 12.2 fold
HEM45 (interferon-stimulated gene, 20-kd; ISG20) expression [3]: 50.2 fold
HEM45, ISG-20 expression [3]: 50.2 fold
HLA class I locus C heavy chain expression [3]: 5.7 fold
HLA-F, gene for major histocompatibility complex class I F expression [3]: 29.4 fold
HPS5 expression, 5A [3]: 1.6 fold
HSPA2 expression, 5A [3]: 1.6 fold
HSPA2 expression, IM vs 5-aza-dC, MA [3]: 1.6 fold
HTATIP2 expression, 5A [3]: 5.6 fold
IGFBP3 expression, IM vs 5-aza-dC, MA [3]: 2.48 fold
IGFBP4 expression, IM vs 5-aza-dC, MA [3]: 3.72 fold
Inhibitor of apoptosis protein 1 expression [3]: 13.1 fold
Insulin-like growth factor binding protein 6 expression [3]: 5.9 fold
Insulin-like growth factor binding protein-4 expression [3]: 3.8 fold
Integral membrane glycoprotein LIG-1 (TM4SF1) expression [3]: 5.2 fold
Interferon regulatory factor 7B expression [3]: 17.5 fold
Interferon, alpha-inducible protein 27 expression [3]: 482.0 fold
Interferon-induced p78, Mx1 expression [3]: 202 fold
Interferon-induced p78, MxB expression [3]: 122.1 fold
Interferon-inducible 56 Kd protein expression [3]: 36.6 fold
Interferon-inducible 56 kDa protein expression [3]: 36.6 fold
Interferon-inducible membrane protein 9-27 (IFITM1) expression [3]: 8.8 fold
Interferon-inducible peptide (6-16) expression [3]: 10.2 fold
Interferon-inducible protein 9-27 expression [3]: 8.8 fold
Interferon-inducible protein (Absent in Melanoma 2, AIM2) expression [3]: 21.6 fold
Interferon-inducible protein AIM2 (absent in melanoma) expression [3]: 21.6 fold
Interferon-inducible protein Mx1 expression [3]: 42 fold
Interferon-inducible protein p78, Mx2 expression [3]: 202 fold
Interferon-stimulated gene p27 mRNA expression [3]: 482.0 fold
Interleukin 8 expression [3]: 92.7 fold
K12 protein precursor (SECTM1) expression [3]: 19.6 fold
KIAA0744 protein expression [3]: 8.6 fold
KIAA 1077 protein Sulfatase FP expression [3]: 10.9 fold
KIAA1750 expression, 5A [3]: 2.9 fold
KIAA1750 expression, IM vs 5-aza-dC, MA [3]: 2.88 fold
Keratin 18 expression [3]: 13.5 fold
Ly-6-related protein (9804) gene expression [3]: 34.1 fold
MAP1LC3B expression, 5A [3]: 1.7 fold
Major group rhinovirus receptor (HRV) ICAM expression [3]: 28.9 fold
Major group rhinovirus receptor (HRV) expression [3]: 28.9 fold
Melanoma growth stimulatory activity (MGSA) (GRO-1) expression [3]: 64.6 fold
Microphage migration inhibitory factor (MIF) expression [3]: 42.1 fold
Microtubular protein 44 expression [3]: 17.8 fold
Microtubular protein p44 (IFI44) expression [3]: 17.8 fold
NK4 protein (natural killer cell transcript 4) expression [3]: 20.2 fold
Neurite outgrowth-promoting protein expression [3]: 7.1 fold
Neuromedin B Precursor expression [3]: 5.6 fold
Nk4 protein (natural killer cell transcript 4) expression [3]: 20.2 fold
OPTN expression, 5A [3]: 2.6 fold
OPTN expression, IM vs 5-aza-dC, MA [3]: 2.6 fold
Optineurin-like protein expression [3]: 4.2 fold
PCTAIRE 2 (pctaire protein kinase) expression [3]: 19.3 fold
Pig 7 expression [3]: 9.4 fold
Placental protein 5 (PP5) expression [3]: 29.3 fold
Placental tissue factor (two forms) expression [3]: 8.7 fold
Putative monocarboxylate transporter expression [3]: 6.3 fold
Rad (Ras associated with diabetes) expression [3]: 19.7 fold
Retinoic acid receptor responder 3 expression [3]: 7.1 fold
SERPINB2 expression, 5A [3]: 4.2 fold
SERPINB2 expression, IM vs 5-aza-dC, MA [3]: 4.2 fold
STAT1α expression, IM vs 5-aza-dC, MA [3]: 2.92 fold
Signal Transducer Activator of Transcription 1 STAT1 91 kDa expression [3]: 7.6 fold
Similar to gb: L 19779 HISTONE H2A.1 expression [3]: 10.3 fold
Skin collagenase MMP1 expression [3]: 4.8 fold
TESTIN 3 testis derived transcript (3 LIM domains) expression [3]: 8.1 fold
TNF-related apoptosis inducing ligand TRAIL expression [3]: 42.2 fold
TNF-related apoptosis inducing ligand, TRAIL expression [3]: 42.2 fold
TNFAIP2 expression, 5A [3]: 5.4 fold
TNFAIP2 expression, IM vs 5-aza-dC, MA [3]: 5.41 fold
Tat-interacting protein TIP30 expression [3]: 8.9 fold
Transcription Factor MAFF expression [3]: 8.1 fold
Transcription factor ISGF-3 (Stat 1) expression [3]: 7.6 fold
Transglutaminase (TGase) expression [3]: 144.6 fold
Tripartite motif-containing protein 14, TRIM14 expression [3]: 6.2 fold
Tumor antigen (L6) expression [3]: 17.5 fold
Tumor necrosis factor-inducible (TSG-6) expression [3]: 10.3 fold
Tyrosine protein kinase (CAK) gene expression [3]: 5.7 fold
Ubiquitin-conjugating enzyme E2L6 (UBE2L6) expression [3]: 5.9 fold
VAMP45 (vesicle-associated membrane protein 5) expression [3]: 9.1 fold
mRNA expressed in osteoblast expression [3]: 32.5 fold
uPA gene (urokinase-plasminogen activator gene) expression [3]: 4.4 fold
senescent phenotype of treated cells (immortal MDAH041 cells): had flat morphology, contained lipofuscin granules, and showed senescence associated β-galactosidase activity at pH 6
